Data from patent publication US9217014B2, “Antifungal agents and uses thereof” (Cidara Therapeutics, Inc., priority 2011, dated 2015).
Like-named read-outs stand apart in the source and are kept apart here.

System: C. albicans R303
Assay: mouse candidiasis infection model, IP administration, kidney fungal burden
Type: in vivo
Conditions: for log reduction at 0.5 mg/kg / log reduction at 1.5 mg/kg / log reduction at 4.5 mg/kg: Candida albicans, R303, ip, 24 h, read-out: Difference from 24-h control; for Mean log10 CFU/kidneys (±SEM): kidneys 24 h after infection; for overall performance in reducing C. albicans CFUs in the kidneys of the mice: conclusion over all runs
Procedure: The objective of these studies was to evaluate the efficacy of test compounds in the mouse candidiasis infection model. Amounts of test articles are uncorrected.
The strain, C. albicans R303 was transferred from frozen storage onto Sabauroud dextrose agar (SDA) plates and grown for ˜24 hr at 35° C. The inoculum was prepared by transferring colonies from the plate to phosphate buffered saline (PBS) and the concentration adjusted to approximately 10^6 CFU/mL with the aid of a spectrophotometer. The stock was diluted 1:9 to prepare the inoculum. Prior to each run the concentration was verified using the dilution plate count method.
Female CD-1 mice were used in this study. The animals were approximately seven-weeks-old at the start of the study and weighed about 15-30 g.
Mice were made neutropenic with IP injections of cyclophosphamide (150 mg/kg in 10 mL/kg) at 4 and 1 day before inoculation. Each animal was inoculated with the appropriate concentration by injecting 0.1 mL of inoculum into a tail vein. The test compounds were administered IP at 2 hr after infection.
In a typical procedure, the kidneys were collected from four mice in control group 1 (untreated) at 2 hr after infection, and from another four mice in control group 2 (untreated) at 24 hr after infection. Kidneys were removed aseptically from each mouse and were combined in a sterile tube. An aliquot (2 mL) of sterile PBS was added to each tube and the contents homogenized with a tissue homogenizer (Polytron 3100). Serial dilutions of the tissue homogenates were conducted and 0.1 mL aliquots were spread on SDA plates and the plates incubated at 35° C. overnight. The CFU/kidneys were determined from colony counts. Data were analyzed using one-way ANOVA with either the Tukey-Kramer Multiple Comparisons Test or Dunnett Test (GraphPad InStat version 3.06, GraphPad Software, San Diego, Calif.).
The data reported below are the average of four mice. Each run included a separate control and each is tabulated separately.

| Compound | log reduction at 0.5 mg/kg (Fourth run, IP 0.5 mg/kg) | log reduction at 1.5 mg/kg (Fourth run, IP 1.5 mg/kg) | Mean log10 CFU/kidneys (±SEM) (Fourth run, IP 0.5 mg/kg) | Mean log10 CFU/kidneys (±SEM) (Fourth run, IP 1.5 mg/kg) | overall performance in reducing C. albicans CFUs in the kidneys of the mice | log reduction at 0.5 mg/kg (Second run, IP 0.5 mg/kg) | log reduction at 1.5 mg/kg (Second run, IP 1.5 mg/kg) | log reduction at 4.5 mg/kg (Second run, IP 4.5 mg/kg) | Mean log10 CFU/kidneys (±SEM) (Second run, IP 0.5 mg/kg) | Mean log10 CFU/kidneys (±SEM) (Second run, IP 1.5 mg/kg) | Mean log10 CFU/kidneys (±SEM) (Second run, IP 4.5 mg/kg) | log reduction at 0.5 mg/kg (Third run, IP 0.5 mg/kg) | log reduction at 1.5 mg/kg (Third run, IP 1.5 mg/kg) | log reduction at 4.5 mg/kg (Third run, IP 4.5 mg/kg) | Mean log10 CFU/kidneys (±SEM) (Third run, IP 0.5 mg/kg) | Mean log10 CFU/kidneys (±SEM) (Third run, IP 1.5 mg/kg) | Mean log10 CFU/kidneys (±SEM) (Third run, IP 4.5 mg/kg) |
| --- | --- | --- | --- | --- | --- | --- | --- | --- | --- | --- | --- | --- | --- | --- | --- | --- | --- |
| CCCCCOc1ccc(-c2ccc(-c3ccc(C(=O)N[C@H]4C[C@@H](O)C(NCCOCCOCCOCCN)NC(=O)C5[C@@H](O)[C@@H](C)CN5C(=O)C([C@@H](C)O)NC(=O)C([C@H](O)[C@@H](O)c5ccc(O)cc5)NC(=O)C5C[C@@H](O)CC5C(=O)C([C@@H](C)O)NC4=O)cc3)cc2)cc1 (stereo partly drawn) [compound 14] | 0.37 | 0.31 | 4.74 ± 0.17 log10 CFU/kidneys | 4.80 ± 0.34 log10 CFU/kidneys | performed poorly | – | – | – | – | – | – | – | – | – | – | – | – |
| CCCCCOc1ccc(-c2ccc(-c3ccc(C(=O)N[C@H]4C[C@@H](O)C(NCCN)NC(=O)C5[C@@H](O)[C@@H](C)CN5C(=O)C([C@@H](C)O)NC(=O)C([C@H](O)[C@@H](O)c5ccc(O)cc5)NC(=O)C5C[C@@H](O)CC5C(=O)C([C@@H](C)O)NC4=O)cc3)cc2)cc1 (stereo partly drawn) [compound 15] | 3.01 | 3.81 | 2.09 ± 0.16 log10 CFU/kidneys | 1.29 ± 0.18 log10 CFU/kidneys | performed strongly | 3.63 | 3.91 | 4.15 | 1.25 ± 0.45 log10 CFU/kidneys | 0.96 ± 0.57 log10 CFU/kidneys | 0.73 ± 0.42 log10 CFU/kidneys | – | – | – | – | – | – |
| CCCCCOc1ccc(-c2ccc(-c3ccc(C(=O)N[C@H]4C[C@@H](O)C(NCCNCCN)NC(=O)C5[C@@H](O)[C@@H](C)CN5C(=O)C([C@@H](C)O)NC(=O)C([C@H](O)[C@@H](O)c5ccc(O)cc5)NC(=O)C5C[C@@H](O)CC5C(=O)C([C@@H](C)O)NC4=O)cc3)cc2)cc1 (stereo partly drawn) [compound 17] | 1.64 | 3.91 | 3.46 ± 0.06 log10 CFU/kidneys | 1.19 ± 0.12 log10 CFU/kidneys | performed strongly | – | – | – | – | – | – | – | – | – | – | – | – |
| CCC(C)CC(C)CCCCCCCCC(=O)N[C@H]1C[C@@H](O)C(NCCOCCOCCN)NC(=O)C2[C@@H](O)CCN2C(=O)C([C@H](O)CCN)NC(=O)C([C@H](O)[C@@H](O)c2ccc(O)cc2)NC(=O)C2C[C@@H](O)CC2C(=O)C([C@@H](C)O)NC1=O (stereo partly drawn) [compound 19] | – | – | – | – | performed strongly | – | – | – | – | – | – | 2.19 | 3.47 | 4.03 | 3.01 ± 0.07 log10 CFU/kidneys | 1.74 ± 0.18 log10 CFU/kidneys | 1.17 ± 0.40 log10 CFU/kidneys |
| CCC(C)CC(C)CCCCCCCCC(=O)N[C@H]1C[C@@H](O)C(NCCOCCN)NC(=O)C2[C@@H](O)CCN2C(=O)C([C@H](O)CCN)NC(=O)C([C@H](O)[C@@H](O)c2ccc(O)cc2)NC(=O)C2C[C@@H](O)CC2C(=O)C([C@@H](C)O)NC1=O (stereo partly drawn) [compound 20] | – | – | – | – | performed strongly | – | – | – | – | – | – | 3.25 | 4.48 | 3.75 | 1.96 ± 0.18 log10 CFU/kidneys | 0.73 ± 0.42 log10 CFU/kidneys | 1.45 ± 0.09 log10 CFU/kidneys |
| CCC(C)CC(C)CCCCCCCCC(=O)N[C@H]1C[C@@H](O)C(NCCNCCO)NC(=O)C2[C@@H](O)CCN2C(=O)C([C@H](O)CCN)NC(=O)C([C@H](O)[C@@H](O)c2ccc(O)cc2)NC(=O)C2C[C@@H](O)CC2C(=O)C([C@@H](C)O)NC1=O (stereo partly drawn) [compound 21] | – | – | – | – | performed strongly | – | – | – | – | – | – | 3.63 | 4.48 | 4.03 | 1.57 ± 0.16 log10 CFU/kidneys | 0.73 ± 0.42 log10 CFU/kidneys | 1.17 ± 0.40 log10 CFU/kidneys |
